# Experimental data taken from patent US6559101B2, “N- (5, 7-dimethoxy [1, 2, 4] triazolo [1, 5-a] pyrimidin-2-yl) arylsulfonamide compounds and their use as herbicides” (Dow AgroSciences LLC, priority 2000, dated 2003).
# What was measured:
# Format in all cases: in vivo
# [1] = tested on: barnyardgrass (Echinochloa crus-galli); assay: Preemergence herbicidal activity; details: scored after 3 weeks, 0 no injury, 100 complete kill or no germination
# Method: (§1) The soil matrix was contained in plastic pots with a surface area of 161 square centimeters. When required to ensure good germination and healthy plants, a fungicide treatment and/or other chemical or physical treatment was applied. A weighed amount, determined by the highest rate to be tested, of each test compound was placed in a 20 mL glass vial and was dissolved in 8 mL of a 97:3 v/v (volume/volume) mixture of acetone and dimethyl sulfoxide to obtain concentrated stock solutions. […] The stock solutions obtained were diluted with a 99.9:0.1 mixture of water and Tween® 155 surfactant (ethoxylated sorbitan fatty acid ester) to obtain application solutions of known concentration. The solutions containing the highest concentration to be tested were prepared by diluting 4 mL aliquots of the stock solution with 8.5 mL of the mixture and lower concentrations were prepared by dilution of appropriate smaller portions of the stock solution. A 2.5 mL aliquot of each solution of known concentration was sprayed evenly onto the soil of each seeded pot using a Cornwall 5.0 mL glass syringe fitted with a TeeJet TN-3 hollow cone nozzle to obtain thorough coverage of the soil in each pot. Control pots were sprayed in the same manner with the aqueous mixture. A highest application rate of 4.48 kg/ha is achieved when 50 mg of test compound is employed. The treated pots and control pots were placed in a greenhouse with an approximately 15 hr photoperiod which was maintained at about 23-29° C. during the day and 22-28° C. during the night. Nutrients and water were added on a regular basis and supplemental lighting was provided with overhead metal halide 1000 Watt lamps as necessary. The water was added by top-irrigation. After 3 weeks the condition of the test plants that germinated and grew as compared with that of the untreated plants that germinated and grew was determined visually and scored on a scale of 0 to 100 percent where 0 corresponds to no injury and 100 corresponds to complete kill or no germination.
# [2] = tested on: velvetleaf (Abutilion theophrasti); assay: Preemergence herbicidal activity; details: scored after 3 weeks, 0 no injury, 100 complete kill or no germination
# Method: as §1
# [3] = tested on: wild poinsettia (Euphorbia heterophylla); assay: Preemergence herbicidal activity; details: scored after 3 weeks, 0 no injury, 100 complete kill or no germination
# Method: as §1
# [4] = tested on: pigweed (Amaranthus retroflexus); assay: Preemergence herbicidal activity; details: scored after 3 weeks, 0 no injury, 100 complete kill or no germination
# Method: as §1
# [5] = tested on: Rox orange sorghum (Sorghum bicolor); assay: Preemergence herbicidal activity; details: scored after 3 weeks, 0 no injury, 100 complete kill or no germination
# Method: as §1
# [6] = tested on: giant foxtail (Setaria faberi); assay: Preemergence herbicidal activity; details: scored after 3 weeks, 0 no injury, 100 complete kill or no germination
# Method: as §1
# [7] = tested on: blackgrass (Alopecurus myosuroides); assay: Preemergence herbicidal activity; details: scored after 3 weeks, 0 no injury, 100 complete kill or no germination
# Method: as §1
# [8] = tested on: morningglory (Ipomoea hederacea); assay: Preemergence herbicidal activity; details: scored after 3 weeks, 0 no injury, 100 complete kill or no germination
# Method: as §1
# wild oats (Avena fatua) [9] = assay: Preemergence herbicidal activity; details: scored after 3 weeks, 0 no injury, 100 complete kill or no germination
# Method: as §1
# [10] = tested on: crabgrass (Digitaria sanguinalis); assay: Preemergence herbicidal activity; details: scored after 3 weeks, 0 no injury, 100 complete kill or no germination
# Method: as §1
# [11] = tested on: cocklebur (Xanthium strumarium); assay: Preemergence herbicidal activity; details: scored after 3 weeks, 0 no injury, 100 complete kill or no germination
# Method: as §1
# [12] = tested on: velvetleaf (Abutilion theophrasti); assay: Postemergence herbicidal activity; details: scored after 2 weeks, 0 no injury, 100 complete kill
# Method: (§2) Seeds of the desired test plant species were planted in Grace-Sierra MetroMix® 306 planting mixture, which typically has a pH of 6.0 to 6.8 and an organic matter content of about 30 percent, in plastic pots with a surface area of 64 square centimeters. When required to ensure good germination and healthy plants, a fungicide treatment and/or other chemical or physical treatment was applied. The plants were grown for 7-21 days in a greenhouse with an approximately 15 hr photoperiod which was maintained at about 23-29° C. during the day and 22-28° C. during the night. Nutrients and water were added on a regular basis and supplemental lighting was provided with overhead metal halide 1000 Watt lamps as necessary. The plants were employed for testing when they reached the first or second true leaf stage. A weighed amount of each test compound, determined by the highest rate to be tested, was placed in a 20 mL glass vial and was dissolved in 4 mL of a 97:3 v/v (volume/volume) mixture of acetone and dimethyl sulfoxide to obtain concentrated stock solutions. […] The concentrated stock solutions obtained were diluted with an aqueous mixture containing acetone, water, iso-propyl alcohol, dimethyl sulfoxide, Atplus 411F crop oil concentrate, and Triton X-155 surfactant (methylenebisdiamyl phenoxy polyethoxy ethanol) in a 48.5:39:10:1.5:1.0:0.02 v/v ratio to obtain spray solutions of known concentration. The solutions containing the highest concentration to be tested were prepared by diluting 2 mL aliquots of the stock solution with 13 mL of the mixture and lower concentrations were prepared by dilution of appropriate smaller portions of the stock solution. Approximately 1.5 mL aliquots of each solution of known concentration were sprayed evenly onto each of the test plant pots using a Devilbiss atomizer driven by compressed air pressure of 2 to 4 psi (140 to 280 kiloPascals) to obtain thorough coverage of each plant. Control plants were sprayed in the same manner with the aqueous mixture. In this test an application rate of 1 ppm results in the application of approximately 1 g/ha. The treated plants and control plants were placed in a greenhouse as described above and watered by sub-irrigation to prevent wash-off of the test compounds. After 2 weeks the condition of the test plants as compared with that of the untreated plants was determined visually and scored on a scale of 0 to 100 percent where 0 corresponds to no injury and 100 corresponds to complete kill.
# [13] = tested on: pigweed (Amaranthus retroflexus); assay: Postemergence herbicidal activity; details: scored after 2 weeks, 0 no injury, 100 complete kill
# Method: as §2
# [14] = tested on: Rox orange sorghum (Sorghum bicolor); assay: Postemergence herbicidal activity; details: scored after 2 weeks, 0 no injury, 100 complete kill
# Method: as §2
# [15] = tested on: giant foxtail (Setaria faberi); assay: Postemergence herbicidal activity; details: scored after 2 weeks, 0 no injury, 100 complete kill
# Method: as §2
# [16] = tested on: blackgrass (Alopecurus myosuroides); assay: Postemergence herbicidal activity; details: scored after 2 weeks, 0 no injury, 100 complete kill
# Method: as §2
# [17] = tested on: morningglory (Ipomoea hederacea); assay: Postemergence herbicidal activity; details: scored after 2 weeks, 0 no injury, 100 complete kill
# Method: as §2
# wild oats (Avena fatua) [18] = assay: Postemergence herbicidal activity; details: scored after 2 weeks, 0 no injury, 100 complete kill
# Method: as §2
# [19] = tested on: lambsquarters (Chenopodium album); assay: Postemergence herbicidal activity; details: scored after 2 weeks, 0 no injury, 100 complete kill
# Method: as §2
# viola (Viola tricolor) = assay: Postemergence herbicidal activity; details: scored after 2 weeks, 0 no injury, 100 complete kill
# Method: as §2
# [20] = tested on: wild buckwheat (Polygonum convolvulus); assay: Postemergence herbicidal activity; details: scored after 2 weeks, 0 no injury, 100 complete kill
# Method: as §2
# [21] = tested on: cocklebur (Xanthium strumarium); assay: Postemergence herbicidal activity; details: scored after 2 weeks, 0 no injury, 100 complete kill
# Method: as §2
# [22] = tested on: chickweed (Stellaria media); assay: Postemergence herbicidal activity; details: scored after 2 weeks, 0 no injury, 100 complete kill
# Method: as §2
# [23] = tested on: lambsquarters (Chenopodium album); assay: Preemergence herbicidal activity; details: 17.5 g/Ha; scored after 3 weeks; 0 no injury, 100 complete kill or no germination
# Method: as §1
Structure (SMILES),Preemergence herbicidal activity ECHCG ([1]; 17.5 g/Ha) [%],Preemergence herbicidal activity ABUTH ([2]; 17.5 g/Ha) [%],Preemergence herbicidal activity EPHHL ([3]; 17.5 g/Ha) [%],Preemergence herbicidal activity AMARE ([4]; 17.5 g/Ha) [%],Preemergence herbicidal activity SORBI ([5]; 17.5 g/Ha) [%],Preemergence herbicidal activity SETFA ([6]; 17.5 g/Ha) [%],Preemergence herbicidal activity ALOMY ([7]; 17.5 g/Ha) [%],Preemergence herbicidal activity IPOHE ([8]; 17.5 g/Ha) [%],Preemergence herbicidal activity AVEFA (wild oats (Avena fatua) [9]; 17.5 g/Ha) [%],Preemergence herbicidal activity DIGSA ([10]; 17.5 g/Ha) [%],Preemergence herbicidal activity XANST ([11]; 17.5 g/Ha) [%],Postemergence herbicidal activity ABUTH ([12]; 31.3 ppm) [%],Postemergence herbicidal activity AMARE ([13]; 31.3 ppm) [%],Postemergence herbicidal activity SORBI ([14]; 31.3 ppm) [%],Postemergence herbicidal activity SETFA ([15]; 31.3 ppm) [%],Postemergence herbicidal activity ALOMY ([16]; 31.3 ppm) [%],Postemergence herbicidal activity IPOHE ([17]; 31.3 ppm) [%],Postemergence herbicidal activity AVEFA (wild oats (Avena fatua) [18]; 31.3 ppm) [%],Postemergence herbicidal activity VIOTR (viola (Viola tricolor); 31.3 ppm) [%],Postemergence herbicidal activity POLCO ([20]; 31.3 ppm) [%],other results
COc1cc(OC)n2nc(NS(=O)(=O)c3c(OC)cccc3C(F)(F)F)nc2n1 [Compound 4],100,98,98,99,100,99,100,98,100,100,85,–,–,–,–,–,–,–,–,–,Postemergence herbicidal activity ABUTH ([12]; 3.9 ppm): 95%; Postemergence herbicidal activity AMARE ([13]; 3.9 ppm): 100%; Postemergence herbicidal activity SORBI ([14]; 3.9 ppm): 95%; Postemergence herbicidal activity SETFA ([15]; 3.9 ppm): 100%; Postemergence herbicidal activity ALOMY ([16]; 3.9 ppm): 95%; Postemergence herbicidal activity IPOHE ([17]; 3.9 ppm): 90%; Postemergence herbicidal activity AVEFA (wild oats (Avena fatua) [18]; 3.9 ppm): 98%; Postemergence herbicidal activity CHEAL ([19]; 3.9 ppm): 95%; Postemergence herbicidal activity VIOTR (viola (Viola tricolor); 3.9 ppm): 90%; Postemergence herbicidal activity POLCO ([20]; 3.9 ppm): 95%; Postemergence herbicidal activity XANST ([21]; 3.9 ppm): 70%; Postemergence herbicidal activity STEME ([22]; 3.9 ppm): 99%
COc1cc(OC)n2nc(NS(=O)(=O)c3c(OCC(F)F)cccc3C(F)(F)F)nc2n1 [Compound 8],100,85,90,100,95,100,95,90,30,85,80,100,100,80,100,80,95,60,85,98,Preemergence herbicidal activity CHEAL [23]: 100%; Postemergence herbicidal activity XANST ([21]; 31.3 ppm): 100%; Postemergence herbicidal activity STEME ([22]; 31.3 ppm): 98%
COc1cc(OC)n2nc(NS(=O)(=O)c3cc(C)ccc3OC)nc2n1 [Compound 6],–,–,–,–,–,–,–,–,–,–,–,95,100,95,95,90,70,95,90,98,Preemergence herbicidal activity ECHCG ([1]; 35 g/Ha): 90%; Preemergence herbicidal activity ABUTH ([2]; 35 g/Ha): 98%; Preemergence herbicidal activity EPHHL ([3]; 35 g/Ha): 80%; Preemergence herbicidal activity AMARE ([4]; 35 g/Ha): 98%; Preemergence herbicidal activity SORBI ([5]; 35 g/Ha): 95%; Preemergence herbicidal activity SETFA ([6]; 35 g/Ha): 98%; Preemergence herbicidal activity ALOMY ([7]; 35 g/Ha): 100%; Preemergence herbicidal activity IPOHE ([8]; 35 g/Ha): 50%; Preemergence herbicidal activity AVEFA (wild oats (Avena fatua) [9]; 35 g/Ha): 90%; Preemergence herbicidal activity DIGSA ([10]; 35 g/Ha): 100%; Preemergence herbicidal activity XANST ([11]; 35 g/Ha): 70%; Postemergence herbicidal activity CHEAL ([19]; 31.3 ppm): 95%; Postemergence herbicidal activity XANST ([21]; 31.3 ppm): 95%; Postemergence herbicidal activity STEME ([22]; 31.3 ppm): 98%
